Source: PubChem BioAssay (NCI)
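Cells were grown in 96-well plates and exposed to each compound for 48 hours at five concentrations; endpoints were interpolated linearly between bracketing concentrations, or set to the highest concentration if not reached. TGI: total growth inhibition.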

Columns and labels:
Experiment in all cases: NCI-60 cell line screen, 48 h
MCF7 breast = test system: MCF7 breast
OVCAR-5 ovarian = test system: OVCAR-5 ovarian
T-47D breast = test system: T-47D breast
SK-MEL-5 melanoma = test system: SK-MEL-5 melanoma
KM12 colon = test system: KM12 colon
MALME-3M melanoma = test system: MALME-3M melanoma
SK-MEL-2 melanoma = test system: SK-MEL-2 melanoma
LOX IMVI melanoma = test system: LOX IMVI melanoma
TK-10 renal = test system: TK-10 renal
ACHN renal = test system: ACHN renal
HCC-2998 colon = test system: HCC-2998 colon
MDA-N = test system: MDA-N
SK-MEL-28 melanoma = test system: SK-MEL-28 melanoma
OVCAR-4 ovarian = test system: OVCAR-4 ovarian
U251 CNS = test system: U251 CNS
PC-3 prostate = test system: PC-3 prostate
A549 NSCLC = test system: A549 NSCLC
HOP-62 NSCLC = test system: HOP-62 NSCLC
786-0 renal = test system: 786-0 renal
HCT-15 colon = test system: HCT-15 colon
MDA-MB-435 = test system: MDA-MB-435
CCRF-CEM leukemia = test system: CCRF-CEM leukemia
UACC-62 melanoma = test system: UACC-62 melanoma
COLO 205 colon = test system: COLO 205 colon
HL-60(TB) leukemia = test system: HL-60(TB) leukemia
NCI/ADR-RES ovarian = test system: NCI/ADR-RES ovarian
EKVX NSCLC = test system: EKVX NSCLC
RPMI-8226 leukemia = test system: RPMI-8226 leukemia
CAKI-1 renal = test system: CAKI-1 renal
NCI-H460 lung = test system: NCI-H460 lung
M14 melanoma = test system: M14 melanoma
HOP-92 NSCLC = test system: HOP-92 NSCLC
OVCAR-8 ovarian = test system: OVCAR-8 ovarian
MOLT-4 leukemia = test system: MOLT-4 leukemia
NCI-H23 lung = test system: NCI-H23 lung
SW-620 colon = test system: SW-620 colon
HT29 colon = test system: HT29 colon
K-562 leukemia = test system: K-562 leukemia
SN12C renal = test system: SN12C renal
MDA-MB-231 breast = test system: MDA-MB-231 breast
SF-295 CNS = test system: SF-295 CNS
HCT-116 colon = test system: HCT-116 colon
SF-539 CNS = test system: SF-539 CNS
SR leukemia = test system: SR leukemia
SNB-75 CNS = test system: SNB-75 CNS
HS 578T breast = test system: HS 578T breast
DU-145 prostate = test system: DU-145 prostate
NCI-H226 lung = test system: NCI-H226 lung
IGROV1 ovarian = test system: IGROV1 ovarian
UACC-257 melanoma = test system: UACC-257 melanoma
SF-268 CNS = test system: SF-268 CNS
OVCAR-3 ovarian = test system: OVCAR-3 ovarian
UO-31 renal = test system: UO-31 renal
SK-OV-3 ovarian = test system: SK-OV-3 ovarian
A498 renal = test system: A498 renal
SNB-19 CNS = test system: SNB-19 CNS
NCI-H522 lung = test system: NCI-H522 lung
RXF 393 renal = test system: RXF 393 renal

Compound `CCOC(=O)C1Cc2ccc(C)cc2C1=O` (configuration not stated) has a TGI (MCF7 breast) greater than 100 µM, a TGI (OVCAR-5 ovarian) greater than 100 µM and a TGI (T-47D breast) greater than 100 µM. The TGI (SK-MEL-5 melanoma) was greater than 100 µM, the TGI (KM12 colon) was greater than 100 µM and the TGI (MALME-3M melanoma) was greater than 100 µM. For the same compound, the TGI (SK-MEL-2 melanoma) was greater than 100 µM, the TGI (LOX IMVI melanoma) was greater than 100 µM and the TGI (TK-10 renal) was greater than 100 µM. For the same compound, the TGI (ACHN renal) was greater than 100 µM, the TGI (HCC-2998 colon) was greater than 100 µM and the TGI (MDA-N) was greater than 100 µM. For the same compound, the TGI (SK-MEL-28 melanoma) was greater than 100 µM, the TGI (OVCAR-4 ovarian) was greater than 100 µM and the TGI (U251 CNS) was greater than 100 µM. For the same compound, the TGI (PC-3 prostate) was greater than 100 µM, the TGI (A549 NSCLC) was greater than 100 µM and the TGI (HOP-62 NSCLC) was greater than 100 µM. The TGI (786-0 renal) was greater than 100 µM, the TGI (HCT-15 colon) was greater than 100 µM and the TGI (MDA-MB-435) was greater than 100 µM. The TGI (CCRF-CEM leukemia) was greater than 100 µM, the TGI (UACC-62 melanoma) was greater than 100 µM and the TGI (COLO 205 colon) was greater than 100 µM. For the same compound, the TGI (HL-60(TB) leukemia) was 69.9 µM, the TGI (NCI/ADR-RES ovarian) was greater than 100 µM and the TGI (EKVX NSCLC) was greater than 100 µM. It also gave a TGI (RPMI-8226 leukemia) greater than 100 µM, a TGI (CAKI-1 renal) greater than 100 µM and a TGI (NCI-H460 lung) greater than 100 µM. For the same compound, the TGI (M14 melanoma) was greater than 100 µM, the TGI (HOP-92 NSCLC) was greater than 100 µM and the TGI (OVCAR-8 ovarian) was greater than 100 µM. For the same compound, the TGI (MOLT-4 leukemia) was greater than 100 µM, the TGI (NCI-H23 lung) was greater than 100 µM and the TGI (SW-620 colon) was greater than 100 µM. It also gave a TGI (HT29 colon) greater than 100 µM, a TGI (K-562 leukemia) greater than 100 µM and a TGI (SN12C renal) greater than 100 µM. The TGI (MDA-MB-231 breast) was greater than 100 µM, the TGI (SF-295 CNS) was greater than 100 µM and the TGI (HCT-116 colon) was greater than 100 µM. For the same compound, the TGI (SF-539 CNS) was greater than 100 µM, the TGI (SR leukemia) was greater than 100 µM and the TGI (SNB-75 CNS) was greater than 100 µM. For the same compound, the TGI (HS 578T breast) was greater than 100 µM, the TGI (DU-145 prostate) was greater than 100 µM and the TGI (NCI-H226 lung) was greater than 100 µM. It also gave a TGI (IGROV1 ovarian) greater than 100 µM, a TGI (UACC-257 melanoma) greater than 100 µM and a TGI (SF-268 CNS) greater than 100 µM. The TGI (OVCAR-3 ovarian) was greater than 100 µM, the TGI (UO-31 renal) was greater than 100 µM and the TGI (SK-OV-3 ovarian) was greater than 100 µM.

For `CCN1C(c2ccccc2)=CC(c2ccccc2)(C(Cl)(Cl)Cl)C=C1c1ccccc1`, the TGI (MCF7 breast) was greater than 100 µM, the TGI (OVCAR-5 ovarian) was 79 µM and the TGI (T-47D breast) was 2.29 µM. For the same compound, the TGI (SK-MEL-5 melanoma) was 4.46 µM, the TGI (A498 renal) was 54.4 µM and the TGI (KM12 colon) was 16.2 µM. It also gave a TGI (MALME-3M melanoma) of 24 µM, a TGI (LOX IMVI melanoma) of 56.7 µM and a TGI (TK-10 renal) greater than 100 µM. The TGI (ACHN renal) was greater than 100 µM, the TGI (HCC-2998 colon) was 24.9 µM and the TGI (MDA-N) was greater than 100 µM. The TGI (SK-MEL-28 melanoma) was 67 µM, the TGI (OVCAR-4 ovarian) was greater than 100 µM and the TGI (U251 CNS) was greater than 100 µM. The TGI (PC-3 prostate) was greater than 100 µM, the TGI (A549 NSCLC) was greater than 100 µM and the TGI (HOP-62 NSCLC) was greater than 100 µM. The TGI (786-0 renal) was greater than 100 µM, the TGI (HCT-15 colon) was greater than 100 µM and the TGI (MDA-MB-435) was 9.51 µM. The TGI (CCRF-CEM leukemia) was greater than 100 µM, the TGI (HL-60(TB) leukemia) was 2.73 µM and the TGI (NCI/ADR-RES ovarian) was greater than 100 µM. For the same compound, the TGI (EKVX NSCLC) was 83 µM, the TGI (RPMI-8226 leukemia) was greater than 100 µM and the TGI (SNB-19 CNS) was greater than 100 µM. It also gave a TGI (CAKI-1 renal) greater than 100 µM, a TGI (NCI-H460 lung) of 23.3 µM and a TGI (M14 melanoma) of 26.4 µM. The TGI (HOP-92 NSCLC) was 25.8 µM, the TGI (OVCAR-8 ovarian) was greater than 100 µM and the TGI (MOLT-4 leukemia) was 61.8 µM. For the same compound, the TGI (NCI-H23 lung) was 93.4 µM, the TGI (SW-620 colon) was greater than 100 µM and the TGI (HT29 colon) was 21.8 µM. The TGI (K-562 leukemia) was greater than 100 µM, the TGI (SN12C renal) was greater than 100 µM and the TGI (MDA-MB-231 breast) was greater than 100 µM. The TGI (SF-295 CNS) was greater than 100 µM, the TGI (HCT-116 colon) was 29.3 µM and the TGI (SF-539 CNS) was 37 µM. It also gave a TGI (SNB-75 CNS) greater than 100 µM, a TGI (HS 578T breast) greater than 100 µM and a TGI (DU-145 prostate) greater than 100 µM. It also gave a TGI (NCI-H522 lung) greater than 100 µM, a TGI (NCI-H226 lung) greater than 100 µM and a TGI (IGROV1 ovarian) of 27.9 µM. For the same compound, the TGI (RXF 393 renal) was 72.2 µM, the TGI (UACC-257 melanoma) was greater than 100 µM and the TGI (SF-268 CNS) was 86.3 µM. The TGI (OVCAR-3 ovarian) was greater than 100 µM and the TGI (UO-31 renal) was greater than 100 µM.
